# Assay results from patent US20230310393A1 (Tianjin Creatron Biotechnology Co., Ltd., priority 2020, published 2023).
# Where two headings read alike, the source gives them in different places.
# Legend:
# [1] = Stability of sorafenib in different organic solvents (related substances by HPLC); format: physicochemical
# [2] = healthy volunteer, oral 100 mg 14C radiolabeled sorafenib; cited from earlier work
# [3] = cited from earlier work
# [4] = renal cell carcinoma patients; cited from earlier work
# [5] = Solubility of sorafenib in different organic solvents; format: physicochemical; conditions: for solubility at 30 min / solubility at 24 h: organic solvent, 37 °C, organic solvent or mixture, thermodynamic from solid
# [6] = Stability of solid dispersions at high temperature of 60° C. (related substances by HPLC); format: physicochemical
# Protocol: The SD prepared above was sealed in an aluminum foil bag, placed in a high temperature of 60° C. for investigation for 10 days and 30 days, and related substances were detected by HPLC method.
# [7] = Solubility test of solid dispersions (pH 1.0 hydrochloric acid, pH 6.8 phosphate buffer, FaSSGF, FaSSIF); format: physicochemical; conditions: main drug:carrier 1:3; for Solubility: pH 1.0 hydrochloric acid solution, 37° C., listed as SLFN
# Protocol: An appropriate amount of solid dispersion (SD) was added to a pH 1.0 hydrochloric acid solution and a pH 6.8 phosphate buffer solution, while keeping the SD in excess, and shaken at 37° C. in a shaker at 300 rpm.
# [8] = acetone-ethanol 1:2, standing 30 min
# [9] = acetone-ethanol 1:2, standing 24 h
# [10] = dichloromethane-acetone 3:1, standing 30 min
# [11] = dichloromethane-acetone 3:1, standing 24 h
# [12] = methanol-dichloromethane 1:2, standing 30 min
# [13] = methanol-dichloromethane 1:2, standing 24 h
# [14] = methanol-dichloromethane 1:3, standing 30 min
# [15] = methanol-dichloromethane 1:3, standing 24 h
# [16] = methanol-dichloromethane 1:4, standing 30 min
# [17] = methanol-dichloromethane 1:4, standing 24 h
compound,measurement,setting,value
"CNC(=O)c1cc(Oc2ccc(NC(=O)Nc3ccc(Cl)c(C(F)(F)F)c3)cc2)ccn1 [sorafenib, 4-{4-[3-(4-chloro-3-trifluoromethyl-phenyl)acylurea]-phenoxy}-pyridine-2-carboxylic acid methylamine]",Related substances RRT 0.08,"[1]; API, no solvent",0.008%
same,Related substances RRT 0.30,"[1]; API, no solvent",0.029%
same,Related substances RRT 0.40,"[1]; API, no solvent",0.006%
same,Related substances RRT 0.55,"[1]; API, no solvent",0.028%
same,Related substances RRT 0.92,"[1]; API, no solvent",0.054%
same,Related substances RRT 1.00,"[1]; API, no solvent",99.864%
same,Related substances RRT 0.05,[1]; [8],4.314%
same,Related substances RRT 0.08,[1]; [8],0.011%
same,Related substances RRT 0.30,[1]; [8],0.029%
same,Related substances RRT 0.40,[1]; [8],0.008%
same,Related substances RRT 0.55,[1]; [8],0.025%
same,Related substances RRT 0.92,[1]; [8],0.047%
same,Related substances RRT 1.00,[1]; [8],95.562%
same,Related substances RRT 0.05,[1]; [9],3.946%
same,Related substances RRT 0.08,[1]; [9],0.010%
same,Related substances RRT 0.30,[1]; [9],0.033%
same,Related substances RRT 0.40,[1]; [9],0.007%
same,Related substances RRT 0.55,[1]; [9],0.020%
same,Related substances RRT 0.92,[1]; [9],0.035%
same,Related substances RRT 1.00,[1]; [9],95.893%
same,Related substances RRT 0.05,[1]; [10],12.979%
same,Related substances RRT 0.08,[1]; [10],2.491%
same,Related substances RRT 0.30,[1]; [10],0.020%
same,Related substances RRT 0.35,[1]; [10],0.282%
same,Related substances RRT 0.92,[1]; [10],0.039%
same,Related substances RRT 1.00,[1]; [10],84.196%
same,Related substances RRT 0.05,[1]; [11],14.191%
same,Related substances RRT 1.00,[1]; [11],85.157%
same,Related substances RRT 0.03,"[1]; isopropanol, standing 30 min",0.161%
same,Related substances RRT 1.00,"[1]; isopropanol, standing 30 min",99.839%
same,Related substances RRT 1.00,"[1]; isopropanol, standing 24 h",99.365%
same,Related substances RRT 0.08,[1]; [12],0.011%
same,Related substances RRT 0.30,[1]; [12],0.030%
same,Related substances RRT 0.40,[1]; [12],0.008%
same,Related substances RRT 0.55,[1]; [12],0.031%
same,Related substances RRT 0.92,[1]; [12],0.037%
same,Related substances RRT 1.00,[1]; [12],99.870%
same,Related substances RRT 0.08,[1]; [13],0.013%
same,Related substances RRT 0.30,[1]; [13],0.035%
same,Related substances RRT 0.40,[1]; [13],0.009%
same,Related substances RRT 0.55,[1]; [13],0.028%
same,Related substances RRT 0.92,[1]; [13],0.049%
same,Related substances RRT 1.00,[1]; [13],99.853%
same,Related substances RRT 0.08,[1]; [14],0.015%
same,Related substances RRT 0.30,[1]; [14],0.029%
same,Related substances RRT 0.40,[1]; [14],0.006%
same,Related substances RRT 0.55,[1]; [14],0.026%
same,Related substances RRT 0.92,[1]; [14],0.050%
same,Related substances RRT 1.00,[1]; [14],99.861%
same,Related substances RRT 0.08,[1]; [15],0.012%
same,Related substances RRT 0.30,[1]; [15],0.035%
same,Related substances RRT 0.40,[1]; [15],0.009%
same,Related substances RRT 0.55,[1]; [15],0.025%
same,Related substances RRT 0.92,[1]; [15],0.037%
same,Related substances RRT 1.00,[1]; [15],99.872%
same,Related substances RRT 0.08,[1]; [16],0.013%
same,Related substances RRT 0.30,[1]; [16],0.028%
same,Related substances RRT 0.40,[1]; [16],0.007%
same,Related substances RRT 0.55,[1]; [16],0.024%
same,Related substances RRT 0.92,[1]; [16],0.034%
same,Related substances RRT 1.00,[1]; [16],99.884%
same,Related substances RRT 0.08,[1]; [17],0.013%
same,Related substances RRT 0.30,[1]; [17],0.028%
same,Related substances RRT 0.40,[1]; [17],0.008%
same,Related substances RRT 0.55,[1]; [17],0.032%
same,Related substances RRT 0.92,[1]; [17],0.045%
same,Related substances RRT 1.00,[1]; [17],99.862%
same,change in related substances,"[1]; methanol-dichloromethane (1:3), 30 min and 24 h",no significant change in related substances
same,administered dose excreted through feces,[2],77%
same,prototype drug excreted through feces,[2],above 51%
same,Solubility,[3]; pH1,0.0034 mg/mL
same,Solubility,[3]; pH4.5,0.00013 mg/mL
same,blood concentration of patients with serious adverse reactions,[4],"more than 10,000 ng/ml"
same,incidence of diarrhea,[4],76.5%
same,incidence of fatigue,[4],55.32%
same,incidence of hand-foot syndrome,[4],68.99%
same,Solubility,"[5]; acetone-ethanol 1:2, 30 min, 37° C.",18.51 mg/mL
same,Solubility,"[5]; acetone-ethanol 1:2, 24 h, 37° C.",18.48 mg/mL
same,Solubility (visual inspection),"[5]; acetone-ethanol 1:3 and 1:5, 30 min",Less API dissolved by visual
same,Solubility (visual inspection),"[5]; dichloromethane-acetone 1:1 and 2:1, 30 min",Less API dissolved by visual
same,Solubility,"[5]; methanol-dichloromethane 1:1, 30 min, 37° C.",14.28 mg/mL
same,solubility at 30 min,"[5]; dichloromethane-acetone 3:1, 30 min, 37° C.",3.6 mg/mL
same,solubility at 24 h,"[5]; dichloromethane-acetone 3:1, 24 h, 37° C.",4.04 mg/mL
same,solubility at 30 min,"[5]; isopropanol, 30 min",2.91 mg/mL
same,solubility at 24 h,"[5]; isopropanol, 24 h",2.81 mg/mL
same,solubility at 30 min,"[5]; methanol-dichloromethane 1:0.5 (v/v), 30 min, 37° C.",8.34 mg/mL
same,solubility at 24 h,"[5]; methanol-dichloromethane 1:0.5 (v/v), 24 h, 37° C.",19.2 mg/mL
same,solubility at 24 h,"[5]; methanol-dichloromethane 1:1, 24 h, 37° C.",24.2 mg/mL
same,solubility at 30 min,"[5]; methanol-dichloromethane 1:2, 30 min, 37° C.",20.9 mg/mL
same,solubility at 24 h,"[5]; methanol-dichloromethane 1:2, 24 h, 37° C.",36.2 mg/mL
same,solubility at 30 min,"[5]; methanol-dichloromethane 1:3, 30 min, 37° C.",36.4 mg/mL
same,solubility at 24 h,"[5]; methanol-dichloromethane 1:3, 24 h, 37° C.",36.4 mg/mL
same,solubility at 30 min,"[5]; methanol-dichloromethane 1:4, 30 min, 37° C.",31.3 mg/mL
same,solubility at 24 h,"[5]; methanol-dichloromethane 1:4, 24 h, 37° C.",36.3 mg/mL
same,Related substances: CTF-aniline,[6]; 0 day,Not detected
same,Related substances: Maximum single impurity,[6]; 0 day,0.03%
same,Related substances: Total impurity,[6]; 0 day,0.09%
same,Related substances: CTF-aniline,[6]; 10 days,Not detected
same,Related substances: Maximum single impurity,[6]; 10 days,0.04%
same,Related substances: Total impurity,[6]; 10 days,0.10%
same,Related substances: CTF-aniline,[6]; 30 days,Not detected
same,Related substances: Maximum single impurity,[6]; 30 days,0.05%
same,Related substances: Total impurity,[6]; 30 days,0.10%
same,Solubility,[7]; 0.5 h,<0.09 µg/mL
same,Solubility,[7]; 2 h,<0.09 µg/mL
same,Solubility,[7]; 4 h,<0.09 µg/mL
same,solubility at 0.5 h,"[7]; phosphate buffer, 37 °C, pH 6.8, aqueous buffer, thermodynamic from solid, pH 6.8 phosphate buffer solution, 0.5 h",< 0.09 µg/mL
same,solubility at 2 h,"[7]; phosphate buffer, 37 °C, pH 6.8, aqueous buffer, thermodynamic from solid, pH 6.8 phosphate buffer solution, 2 h",< 0.09 µg/mL
same,solubility at 4 h,"[7]; phosphate buffer, 37 °C, pH 6.8, aqueous buffer, thermodynamic from solid, pH 6.8 phosphate buffer solution, 4 h",< 0.09 µg/mL
